Patent US20040266795A1 (priority 2003, published 2004)
Where two headings read alike, the source gives them in different places.

Columns and labels:
[1] = Stability studies of the prepared FMC (storage, HPLC); type: physicochemical
Description: The purity of famciclovir was analyzed by HPLC under the following conditions: […]

[2] = below 85% relative humidity; cited from earlier work
[3] = cited from earlier work
[4] = 1 month, 25° C., 75% relative humidity
[5] = 1 month, 40° C., 75% relative humidity
[6] = 1 month, 55° C., 75% relative humidity
[7] = 2 month, 25° C., 75% relative humidity
[8] = 2 month, 40° C., 75% relative humidity
[9] = 2 month, 55° C., 75% relative humidity
[10] = 3 months, 25° C., 75% relative humidity
[11] = 3 months, 40° C., 75% relative humidity
[12] = 3 months, 55° C., 75% relative humidity
[13] = 5 months, 25° C., 75% relative humidity
[14] = 6 months, 25° C., 75% relative humidity
[15] = 6 months, 40° C., 75% relative humidity
[16] = 6 months, 55° C., 75% relative humidity

In the case of “2-[2-(2-amino-9H-purin-9-yl)ethyl]-1,3-propane diacetate [famciclovir]”, the “Any, %” value [1, 4] is reported as 0.00%, the “Total, %” value [1, 4] is reported as 0.00% and the “Any, %” value [1, 5] is reported as 0.00%. For the same substance, the “Total, %” value [1, 5] was 0.00%, the “Any, %” value [1, 6] was 0.00% and the “Total, %” value [1, 6] was 0.00%. The “Any, %” value [1, 7] was 0.00%, the “Total, %” value [1, 7] was 0.00% and the “Any, %” value [1, 8] was 0.06%. For the same substance, the Appear. [1, 8] was “White”, the “MH-FMC RRT 0.51 (%)” value [1, 8] was 0.06% and the “RRT 0.80 (%)” value [1, 8] was less than 0.01%. For the same substance, the “RRT 0.87 (%)” value [1, 8] was less than 0.01%, the “RRT 0.89 (%)” value [1, 8] was 0.01% and the “RRT 1.10 (%)” value [1, 8] was less than 0.01%. The “RRT 1.27 (%)” value [1, 8] was less than 0.01%, the “RRT 1.35 (%)” value [1, 8] was less than 0.01% and the “RRT 1.74 (%)” value [1, 8] was less than 0.01%. The “Total, %” value [1, 8] was 0.07%, the “Any, %” value [1, 9] was 0.07% and the Appear. [1, 9] was “White”. For the same substance, the “MH-FMC RRT 0.51 (%)” value [1, 9] was 0.07%, the “RRT 0.80 (%)” value [1, 9] was less than 0.01% and the “RRT 0.87 (%)” value [1, 9] was less than 0.01%. The “RRT 0.89 (%)” value [1, 9] was 0.01%, the “RRT 1.10 (%)” value [1, 9] was less than 0.01% and the “RRT 1.27 (%)” value [1, 9] was less than 0.01%. For the same substance, the “RRT 1.35 (%)” value [1, 9] was less than 0.01%, the “RRT 1.74 (%)” value [1, 9] was less than 0.01% and the “Total, %” value [1, 9] was 0.08%. For the same substance, the “Any, %” value [1, 10] was 0.00%, the “Total, %” value [1, 10] was 0.00% and the “Any, %” value [1, 11] was 0.06%. The Appear. [1, 11] was “White”, the “MH-FMC RRT 0.51 (%)” value [1, 11] was 0.06% and the “RRT 0.80 (%)” value [1, 11] was less than 0.01%. The “RRT 0.87 (%)” value [1, 11] was less than 0.01%, the “RRT 0.89 (%)” value [1, 11] was 0.01% and the “RRT 1.10 (%)” value [1, 11] was less than 0.01%. For the same substance, the “RRT 1.27 (%)” value [1, 11] was less than 0.01%, the “RRT 1.35 (%)” value [1, 11] was less than 0.01% and the “RRT 1.74 (%)” value [1, 11] was less than 0.01%. For the same substance, the “Total, %” value [1, 11] was 0.07%, the “Any, %” value [1, 12] was 0.06% and the Appear. [1, 12] was “White”. For the same substance, the “MH-FMC RRT 0.51 (%)” value [1, 12] was 0.06%, the “RRT 0.80 (%)” value [1, 12] was less than 0.01% and the “RRT 0.87 (%)” value [1, 12] was less than 0.01%. For the same substance, the “RRT 0.89 (%)” value [1, 12] was 0.01%, the “RRT 1.10 (%)” value [1, 12] was less than 0.01% and the “RRT 1.27 (%)” value [1, 12] was less than 0.01%. For the same substance, the “RRT 1.35 (%)” value [1, 12] was less than 0.01%, the “RRT 1.74 (%)” value [1, 12] was less than 0.01% and the “Total, %” value [1, 12] was 0.07%. For the same substance, the “Any, %” value [1, 13] was 0.06%, the Appear. [1, 13] was “White” and the “MH-FMC RRT 0.51 (%)” value [1, 13] was 0.06%. The “RRT 0.80 (%)” value [1, 13] was 0.01%, the “RRT 0.87 (%)” value [1, 13] was 0.02% and the “RRT 0.89 (%)” value [1, 13] was 0.01%. The “RRT 1.10 (%)” value [1, 13] was 0.01%, the “RRT 1.27 (%)” value [1, 13] was 0.01% and the “RRT 1.35 (%)” value [1, 13] was 0.01%. The “RRT 1.74 (%)” value [1, 13] was 0.01%, the “Total, %” value [1, 13] was 0.14% and the “Any, %” value [1, 14] was 0.06%. For the same substance, the “MH-FMC RRT 0.51 (%)” value [1, 14] was 0.06%, the “RRT 0.80 (%)” value [1, 14] was 0.01% and the “RRT 0.87 (%)” value [1, 14] was 0.01%. For the same substance, the “RRT 1.27 (%)” value [1, 14] was 0.01%, the “Total, %” value [1, 14] was 0.09% and the “Any, %” value [1, 15] was 0.06%. For the same substance, the “MH-FMC RRT 0.51 (%)” value [1, 15] was 0.06%, the “RRT 0.80 (%)” value [1, 15] was 0.01% and the “RRT 0.87 (%)” value [1, 15] was 0.01%. For the same substance, the “RRT 1.27 (%)” value [1, 15] was 0.01%, the “Total, %” value [1, 15] was 0.09% and the “Any, %” value [1, 16] was 0.06%. For the same substance, the “MH-FMC RRT 0.51 (%)” value [1, 16] was 0.06%, the “RRT 0.80 (%)” value [1, 16] was 0.01% and the “RRT 0.87 (%)” value [1, 16] was 0.01%. The “RRT 1.27 (%)” value [1, 16] was 0.01%, the “Total, %” value [1, 16] was 0.09% and the “monohydroxy impurity content upon storage” value ([1]; at least 6 months at 25° C., 40° C. or 55° C. and 75% relative humidity) was “does not increase”. For the same substance, the “Any, %” value ([1]; start) was 0.00%, the “Total, %” value ([1]; start) was 0.00% and the hygroscopicity [2] was “not hydroscopic”. The “partition coefficient P” value ([3]; octanol/phosphate buffer (pH 7.4)) was 2.08 and the “partition coefficient P” value ([3]; octanol/water (pH 4.8)) was 1.09.
